US8524705B2, “2-oxo-2-(2-phenyl-5,6,7,8-tetrahydro-indolizin-3-yl)-acetamide derivatives and related compounds as antifungal agents” (F2G Limited British Body Corporate, priority 2007, dated 2013)
Values after ≈ are worked out from the molar mass of the structure shown.

Experiments:
Type in all cases: cell-based
Conditions in all cases: banded into grades
Aspergillus terreus AT49 = experiment: Measurement of Minimum Inhibitory Concentrations (MICs), A. terreus 49
Description: (§1) Between 1 and 5 mgs of compound were accurately weighed out into a sterile Eppendorf tube. The compound was dissolved in DMSO to give a solution containing 5 mg/mL. Tubes were stored at −20° C. until required. On the day of testing thawed solutions were vortex mixed to ensure homogeneity. 30 μL of solution was removed and added to 570 μL of sterile water in a separate sterile Eppendorf. The thoroughly mixed solution was used to prepare a series of doubling dilutions in water, in a deep well plate. […] replicate plates were prepared using a Minitrak by aspirating […] from each well into eleven clear polystyrene 96 well plates. Spores of Aspergillus spp. (Aspergillus fumigatus [two strains], Aspergillus terreus [two strains], Aspergillus niger and Aspergillus flavus) were harvested from cultures grown on Sabarauds agar for 5 days, and resuspended in PBS/Tween 80 to approx 1×10^7 cfu/mL. Each organism suspension was diluted in YAG medium (1% glucose, 1% ammonium chloride and 0.5% yeast extract) to 0.5-2×10^4 cfu/mL. 80 μL of an organism suspension was added to each well of the plate containing drug dilutions. This produced MIC plates with a drug range 50-0.05 mg/L and organism inocula of 1−2×10^4 cfu/mL for Aspergillus spp. All plates were incubated for 24 hrs at 35° C. Growth was assessed by monitoring the optical density at 485 nm for each well. The MIC of a compound is the lowest drug concentration that inhibits growth of an organism by >70% compared with a drug free control. MICs are recorded as mg/L. In cases where the MIC of an organism is >=0.05 mg/L the MIC is repeated using a concentration range of 0.5-0.0005 mg/L. Other growth media can be used for susceptibility testing, and the activity of the described compounds was also assessed in RPMI medium containing 2% glucose, and 0.135M MOPS buffer. MIC tests in YAG medium have more clear-cut endpoints and have slightly lower MICs than those performed in RPMI medium. The following organisms were tested: Aspergillus flavus, Aspergillus fumigatus AF293 and AF210, Aspergillus niger and Aspergillus terreus AT4 and AT49.

Aspergillus flavus = experiment: Measurement of Minimum Inhibitory Concentrations (MICs), A. flavus
Description: as §1

[1] = test system: Aspergillus fumigatus AF293; experiment: Measurement of Minimum Inhibitory Concentrations (MICs), A. fumigatus
Description: as §1

Aspergillus terreus AT4 = experiment: Measurement of Minimum Inhibitory Concentrations (MICs), A. terreus
Description: as §1

[2] = test system: Aspergillus fumigatus AF210; experiment: Measurement of Minimum Inhibitory Concentrations (MICs), A. fumigatus 210
Description: as §1

Aspergillus niger = experiment: Measurement of Minimum Inhibitory Concentrations (MICs), A. niger
Description: as §1

[3] = RPMI medium containing 2% glucose, 0.135M MOPS buffer
[4] = YAG medium, 24 hrs at 35° C., >70% growth inhibition

SMILES | MIC (Aspergillus terreus AT49; [3]) [µg/mL] | MIC (Aspergillus terreus AT49; [4]) [µg/mL] | MIC (Aspergillus flavus; [3]) [µg/mL] | MIC (Aspergillus flavus; [4]) [µg/mL] | MIC [1, 3] [µg/mL] | MIC [1, 4] [µg/mL] | MIC (Aspergillus terreus AT4; [3]) [µg/mL] | MIC (Aspergillus terreus AT4; [4]) [µg/mL] | MIC [2, 3] [µg/mL] | MIC [2, 4] [µg/mL] | MIC (Aspergillus niger; [3]) [µg/mL] | MIC (Aspergillus niger; [4]) [µg/mL]
C=C(C)CN1CCN(c2ccc(NC(=O)C(=O)c3c(-c4ccccc4)cc4n3CCCC4)cc2)CC1 [Example 1, N-{4-[4(2-methyl-allyl)-piperazin-1-yl]-phenyl}-2-oxo-2-(2-phenyl-5,6,7,8-tetrahydro-indolizin-3-yl)-acetamide] | < 1 | < 1 | < 1 | < 1 | < 1 | < 1 | < 1 | < 1 | < 1 | < 1 | < 1 | < 1
CC(C)(C)CN1CCN(c2ccc(NC(=O)C(=O)c3c(-c4ccccc4)cc4n3CCCC4)cc2)CC1 [Example 2, N-{4-[4-(2,2-dimethyl-propyl)-piperazin-1-yl]-phenyl}-2-oxo-2-(2-phenyl-5,6,7,8-tetrahydro-indolizin-3-yl)-acetamide] | < 1 | < 1 | < 1 | < 1 | < 1 | < 1 | < 1 | < 1 | < 1 | < 1 | < 1 | < 1
Cc1cc(C)nc(N2CCN(c3ccc(NC(=O)C(=O)c4c(-c5ccccc5)cc5n4CCCC5)cc3)CC2)c1 [Example 3, N-{4-[4-(4,6-dimethyl-pyridin-2-yl)-piperazin-1-yl]-phenyl}-2-oxo-2-(2-phenyl-5,6,7,8-tetrahydro-indolizin-3-yl)-acetamide] | < 1 | < 1 | < 1 | < 1 | < 1 | < 1 | < 1 | < 1 | < 1 | < 1 | < 1 | < 1
Cc1cc(C)nc(N2CCN(c3ccc(NC(=O)C(=O)c4c(C5CCCC5)cc5n4CCCC5)cc3)CC2)c1 [Example 4, 2-(2-cyclopentyl-5,6,7,8-tetrahydro-indolizin-3-yl)-N-{4-[4-(4,6-dimethyl-pyridin-2-yl)-piperazin-1-yl]-phenyl}-2-oxo-acetamide] | < 1 | < 1 | < 1 | < 1 | < 1 | < 1 | < 1 | < 1 | < 1 | < 1 | < 1 | < 1
Cc1cc(C)nc(N2CCCN(c3ccc(NC(=O)C(=O)c4c(-c5ccccc5)cc5n4CCCC5)cc3)CC2)c1 [Example 5, N-{4-[4-(4,6-dimethyl-pyridin-2-yl)-[1,4]diazepan-1-yl]-phenyl}-2-oxo-2-(2-phenyl-5,6,7,8-tetrahydro-indolizin-3-yl)-acetamide] | < 1 | < 1 | < 1 | < 1 | < 1 | < 1 | < 1 | < 1 | < 1 | < 1 | < 1 | < 1
Cc1cc(C)nc(N2CCN(c3ccc(N(C)C(=O)C(=O)c4c(-c5ccccc5)cc5n4CCCC5)cc3)CC2)c1 [Example 6, N-{4-[4-(4,6-dimethyl-pyridin-2-yl)-piperazin-1-yl]-phenyl}-N-methyl-2-oxo-2-(2-phenyl-5,6,7,8-tetrahydro-indolizin-3-yl)-acetamide] | > 10 | 1 to 10 (≈ 1.83 to 18.3 µM) | > 10 | > 10 | > 10 | 1 to 10 (≈ 1.83 to 18.3 µM) | > 10 | > 10 | > 10 | 1 to 10 (≈ 1.83 to 18.3 µM) | > 10 | > 10
Cc1cc(C)nc(N(C)CCN(C)c2ccc(NC(=O)C(=O)c3c(-c4ccccc4)cc4n3CCCC4)cc2)c1 [Example 7, N-[4-({2-[(4,6-Dimethyl-pyridin-2-yl)-methyl-amino]-ethyl}-methyl-amino)-phenyl]-2-oxo-2-(2-phenyl-5,6,7,8-tetrahydro-indolizin-3-yl)-acetamide] | < 1 | < 1 | < 1 | < 1 | < 1 | < 1 | < 1 | < 1 | < 1 | < 1 | < 1 | < 1
